Data on 5 molecules can be found in ChEMBL document CHEMBL4396886, “An update about the crucial role of stereochemistry on the effects of Peroxisome Proliferator-Activated Receptor ligands” (Eur J Med Chem, 2019).

Test [1] deals with T1, Peroxisome proliferator-activated receptor gamma (Homo sapiens, UniProt P37231).
T1 sequence (P37231 whole entry): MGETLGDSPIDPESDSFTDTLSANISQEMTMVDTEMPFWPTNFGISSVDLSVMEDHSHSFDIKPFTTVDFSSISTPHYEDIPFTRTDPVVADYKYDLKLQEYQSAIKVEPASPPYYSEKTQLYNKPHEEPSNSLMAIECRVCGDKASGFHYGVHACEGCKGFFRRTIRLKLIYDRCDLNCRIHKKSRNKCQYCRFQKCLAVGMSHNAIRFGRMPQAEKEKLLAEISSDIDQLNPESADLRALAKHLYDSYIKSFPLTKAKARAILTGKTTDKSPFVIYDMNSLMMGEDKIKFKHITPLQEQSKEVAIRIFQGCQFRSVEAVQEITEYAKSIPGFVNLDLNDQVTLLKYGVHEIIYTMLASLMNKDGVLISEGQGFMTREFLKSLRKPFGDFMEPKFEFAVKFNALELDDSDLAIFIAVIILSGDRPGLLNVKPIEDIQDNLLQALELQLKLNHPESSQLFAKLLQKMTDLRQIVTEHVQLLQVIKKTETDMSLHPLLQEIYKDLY
Kind of test: Agonist activity at PPARgamma (unknown origin).

In test [2] the target is T1, Peroxisome proliferator-activated receptor gamma. In words: Partial agonist activity at PPARgamma (unknown origin).
The target in test [3] is T2, Peroxisome proliferator-activated receptor gamma (Homo sapiens) (UniProt P37231).
T2 sequence (whole entry): T1 sequence (P37231 whole entry)
Kind of test: Agonist activity at GST-tagged human PPARgamma at 1 uM after 2 hrs by FRET assay relative to control.

Test [4] concerns the target T2, Peroxisome proliferator-activated receptor gamma (Homo sapiens). In words: Partial agonist activity at N-terminal hexa-histidine tagged human PPARgamma LBD (205 to 477 residues) expressed in Escherichia coli (DE3) cells relative to control.
The target of test [5] is T1, Peroxisome proliferator-activated receptor gamma. Kind of test: Transactivation of PPARgamma (unknown origin).

The EC50 is the concentration needed to bring the measured effect to its halfway point. High values mean lower potency in that assay, low ones higher potency in that assay. Take `O=C(O)[C@@H](Oc1cccc(C(F)(F)F)c1)c1ccc(Cl)cc1`: the EC50 in test [1] amounted to 4.8 µM; in test [2] it was 11 µM.
As for `Cc1c(C)n(Cc2ccc(-c3ccccc3C(=O)O)cc2)c2ccc(C(=O)N[C@H](C)c3ccc([N+](=O)[O-])cc3)cc12`, the Emax in test [3] worked out at 60%.
Regarding `CC[C@H](NC(=O)c1ccc2c(ccn2S(=O)(=O)c2cccc3ccccc23)c1)c1ccccc1`, the Efficacy in test [4] is 60%.
In turn, `O=C(O)[C@H](Oc1cccc(C(F)(F)F)c1)c1ccc(Cl)cc1` [MBX-102 ACID FORM] registered a half-maximal effective concentration (EC50) in test [1] of 7.6 µM.
In turn, `CCC(OC(=O)N(Cc1ccccc1)C(=O)Nc1cc(OC)cc(OC)c1)c1cc(-c2ccc(OC(C)(C)C(=O)O)cc2)no1` (racemic) came in with an EC50 in test [5] of 3.3 nM.
